{"source": "paper PMC5613011", "about": "“Fenugreek Compound (N55) Lowers Plasma Glucose through the Enhancement of Response of Physiological Glucagon-like peptide-1” (Scientific Reports, 2017)", "key": {"non-fasted mice": {"system": "non-fasted mice", "assay": "IPGTT, non-fasted mice (plasma glucose, glucose AUC0–120)", "assay_type": "in vivo, Female C57BL/6 mice", "details": "Ex-9 without N55 (1530 without Ex-9), mean, n = 5", "source_text": "(§1) All animal procedures were approved by the Institute of Biomedical Sciences Animal Care and Use Committee (Academia Sinica, Taiwan). The Experimental Animal Committee, Academia Sinica, Taiwan approved all animal experimental procedures. All animals were carefully looked after to ensure that their welfare were well looked after. Additionally, all the experimental procedures and the reagents used in this manuscript have been approved by The Ethic Committee, Academia Sinica. All methods were performed in accordance with the relevant guidelines and regulations by the Institute of Biomedical Sciences Animal Care and Use Committee (Academia Sinica, Taiwan) and The Ethic Committee (Academia Sinica, Taiwan). […]\n(§2) All experiments were performed at approximately 1 PM. […] Plasma glucose was monitored using a glucometer (Accu-Check Performa, Roche, Basel, Switzerland). Glucose AUC0–120 was calculated during the 120-min time interval from IPGTT results. […] The decrease in plasma glucose was calculated by subtracting the plasma glucose in the presence of indicated reagent from that in the absence of indicated reagent; ∆ Plasma Glucose (mmol/l) = [plasma glucose at 15 min point obtained in the absence of indicated reagent] − [plasma glucose at 15 min point obtained in the presence of indicated reagent]. […]"}, "mice": {"system": "mice", "assay": "Plasma insulin during IPGTT", "assay_type": "in vivo, Female C57BL/6 mice", "source_text": "as §1, with “Sinica.” for “Sinica. All methods were performed in accordance with the relevant guidelines and regulations by the Institute of Biomedical Sciences Animal Care and Use Committee (Academia Sinica, Taiwan) and The Ethic Committee (Academia Sinica, Taiwan).”\nas §2\nBlood samples were collected from the tail vein before any drug administration and at 15 and 60 min after i.p. glucose loading (time 0). […] Plasma insulin levels were determined by a mouse insulin enzyme-linked immunosorbent assay kit (10–1247–01, Mercodia, Sweden) according to the manufacturer’s protocols. […]"}, "fasted mice": {"system": "fasted mice", "assay": "IPGTT, fasted mice (plasma glucose, glucose AUC0–120)", "assay_type": "in vivo, Female C57BL/6 mice", "source_text": "All animal procedures were approved by the Institute of Biomedical Sciences Animal Care and Use Committee (Academia Sinica, Taiwan). The Experimental Animal Committee, Academia Sinica, Taiwan approved all animal experimental procedures. All animals were carefully looked after to ensure that their welfare were well looked after. Additionally, all the experimental procedures and the reagents used in this manuscript have been approved by The Ethic Committee, Academia Sinica. All methods were performed in accordance with the relevant guidelines and regulations by the Institute of Biomedical Sciences Animal Care and Use Committee (Academia Sinica, Taiwan) and The Ethic Committee (Academia Sinica, Taiwan). Female C57BL/6 mice (BioLAS CO, Yi-Lan Breeding Center, Taiwan) aged 8–12 weeks were housed on a 12-h light/12-h dark cycle and provided with food and water ad libitum. The mice were fed with the standard chow (PicoLab Rodent Diet 5053, LabDiet, St. Louis, MO, USA) diet which consisted of 13.2% fat, 24.7% protein, and 62.1% carbohydrates as a source of calories.\nAll experiments were performed at approximately 1 PM. For the fasted mice, standard chow was removed away at 9 AM on the day of the IPGTT, but were provided water ad libitum for 4 h prior to the beginning of the test. All the administered materials were dissolved in isotonic sodium chloride solution (0.9% sodium chloride) containing 5% ethanol. Vehicle, N55, GLP-1′, [Aib8, E22, E30]-GLP-1(7–36) amide, Ex-4 or Ex-9 alone or in combination were administered by i.p. injection 15 min before D-(+)-glucose (2 g/kg of body weight) i.p. administration. Blood samples were drawn from the tail vein right before glucose loading (time 0) and at 15, 30, 60, 90 and 120 min after glucose administration. Plasma glucose was monitored using a glucometer (Accu-Check Performa, Roche, Basel, Switzerland). Glucose AUC0–120 was calculated during the 120-min time interval from IPGTT results. Glucose AUC0–120 was obtained using the formula AUC0–120 = [15 × (G0 + G15)/2] + [15 × (G15 + G30)/2] + [30 × (G30 + G60)/2] + [30 × (G60 + G90)/2] + [30 × (G90 + G120)/2] where G0, G15, G30, G60, G90 and G120 were blood glucose level at each time point during IPGTT. The decrease in plasma glucose was calculated by subtracting the plasma glucose in the presence of indicated reagent from that in the absence of indicated reagent; ∆ Plasma Glucose (mmol/l) = [plasma glucose at 15 min point obtained in the absence of indicated reagent] − [plasma glucose at 15 min point obtained in the presence of indicated reagent]. The decreased in glucose AUC0–120 was expressed by subtracting the AUC0–120 in the presence of f indicated reagent rom that in the absence of indicated reagent. ∆ AUC0–120 (mmol/l x min) = [AUC0–120 in the absence of indicated reagent] − [AUC0–120 in the presence of indicated reagent].\n(§3) Values for each experimental group are presented as mean ± SEM. Statistics were performed using Student’s t-test and one-way analysis of variance (ANOVA). Significance levels shown in the figures are: * P < 0.05, ** P < 0.01 and *** P < 0.001 as well as ^# P < 0.05, ^## P < 0.01 and ^### P < 0.001. A P-value of less than 0.05 was considered significant. Student’s t-test that is used to compare the means of two groups and one-way ANOVA is used to compare the means of more than two groups. Five mice per group were used for the in vivo studies. The in vivo studies were performed at least twice. The in vitro assays were triplicates of three independent experiments."}, "GLP-1R [1]": {"system": "GLP-1R", "assay": "BRET / real-time intracellular cAMP response assay, GLP-1R", "assay_type": "cell-based", "source_text": "Figure 7 Hypoglycemic action of [Aib8, E22, E30]-GLP-1(7–36) amide was not affected by N55. (a) Sequence alignment of GLP-1(7–36) amide, Ex-4 and mutant peptide. G22 and A30 (purple alphabets) are non-homologous residues between GLP-1(7–36) amide and Ex-4. These residues in GLP-1(7–36) amide were replaced with E (red alphabets), the corresponding residues (blue alphabets) in Ex-4, to generate DPP4-resistant GLP-1 mutant peptide ([Aib8, E22, E30]-GLP-1(7–36) amide). Effect of N55 on cAMP responses to the titration of (b) [Aib8, E22, E30]-GLP-1(7–36) amide and GLP-1′. Values are means ± SEM of triplicate assays from three independent experiments. Dose effect of [Aib8, E22, E30]-GLP-1(7–36) amide on (c) plasma glucose levels and on (d) glucose AUC0–120. Dose effect of N55 on (e) the hypoglycemic response and on (f) glucose AUC0–120 of 16.2 nmol/kg of [Aib8, E22, E30]-GLP-1(7–36) amide. Indicated doses of [Aib8, E22, E30]-GLP-1(7–36) amide and N55 were i.p. administered to group of fasted mice (n = 5) 15 min before the glucose loading (2 g/kg) of the IPGTT. Values are mean ± SEM for groups of five mice. * P < 0.05, ** P < 0.01 and *** P < 0.001 were comparisons of indicated dose of [Aib8, E22, E30]-GLP-1(7–36) amide vs control (c,d). NS, not significant.\nThe real-time intracellular cAMP assay was performed as previously described.\nas §3"}, "GLP-1R [2]": {"system": "GLP-1R", "details": "cited from earlier work", "source_text": "Firstly, the hypoglycemic effect of N55 during IPGTT of non-fasted mice requires functional GLP-1R signaling. Secondly, although N55 could not affect the plasma glucose in fasted mice whose endogenous GLP-1 are relatively low (Fig. 2a). […] Thirdly, the hypoglycemic effect and potentiation of insulinotropic effect of GLP-1 required the functional s ... || (+ 1 further places)"}, "[3]": {"details": "Ex-9 with GLP-1′ 5.4 nmol/kg, with or without N55, n = 5"}}, "data": [{"substance": "exendin-(9–39) [Ex-9]", "values": [{"measurement": "glucose AUC0–120", "setting": "non-fasted mice", "result": 2070, "unit": "mmol/l x min glucose"}, {"measurement": "plasma insulin level with Ex-9", "setting": "mice; 15 and 60 min after glucose loading, Ex-9 treated non-fasted and fasted mice", "result": "0.36 to 0.65", "unit": "µg/L"}, {"measurement": "effect of Ex-9 on GLP-1′ glucose lowering and N55 enhancement", "setting": "fasted mice; [3]", "result": "completely eliminated the glucose lowering effect of GLP-1′ and the enhancement effect of N55"}, {"measurement": "glucose AUC0–120 in all Ex-9 treated mice", "setting": "fasted mice; [3]", "result": "~1520", "unit": "mmol/l x min glucose"}, {"measurement": "plasma glucose level in Ex-9 treated mice", "setting": "fasted mice; [3]", "result": 22, "unit": "mmol/L"}]}, {"substance": "HAibEGTFTSDVSSYLEEQAAKEFIEWLVKGR-NH2 [[Aib8, E22, E30]-GLP-1(7–36) amide, DPP4-resistant GLP-1 mutant peptide]", "values": [{"measurement": "response to N55 (cAMP)", "setting": "GLP-1R [1]; titration of peptide with N55, triplicate assays from three independent experiments", "result": "failed to respond to N55"}, {"measurement": "potency in stimulating GLP-1R (cAMP)", "setting": "GLP-1R [1]; titration, compared with GLP-1′, triplicate assays from three independent experiments", "result": "displayed comparable potency in stimulating GLP-1R"}, {"measurement": "glucose AUCs during IPGTT", "setting": "fasted mice; mutant peptide i.p., n = 5", "result": "decreased glucose AUCs"}, {"measurement": "plasma glucose during IPGTT", "setting": "fasted mice; mutant peptide i.p., n = 5", "result": "dose-dependently lowered the plasma glucose"}]}, {"substance": "HAibEGTFTSDVSSYLEGQAAKEFIAWLVKGR-NH2 [GLP-1′, [Aib8]-GLP-1(7–36) amide, DPP4-resistant GLP-1 peptide]", "values": [{"measurement": "15-min plasma insulin level", "setting": "mice; fasted mice, GLP-1′ without N55, 15 min after glucose loading, mouse insulin ELISA, mean, n = 5", "result": 1.44, "unit": "µg/L"}, {"measurement": "glucose tolerance", "setting": "fasted mice; GLP-1′ 0.2 nmol/kg alone i.p., n = 5", "result": "did not affect the glucose tolerance at all"}, {"measurement": "contribution to improvement of glucose excursion in presence of Ex-9", "setting": "fasted mice; GLP-1′ 5.4 nmol/kg + Ex-9, without N55", "result": "non-detectable level"}, {"measurement": "15-min plasma glucose level", "setting": "fasted mice; GLP-1′ 5.4 nmol/kg i.p. without N55, mean, n = 5", "result": 18, "unit": "mmol/L"}, {"measurement": "glucose excursion (AUC0–120)", "setting": "fasted mice; GLP-1′ 5.4 nmol/kg i.p., n = 5", "result": "significantly improved"}, {"measurement": "glucose tolerance", "setting": "fasted mice; GLP-1′ 5.4 nmol/kg i.p., n = 5", "result": "significantly improved the glucose tolerance"}, {"measurement": "contribution of GLP-1′ to improvement of glucose excursion (AUC0–120 with Ex-9 minus without Ex-9)", "setting": "fasted mice; GLP-1′ 5.4 nmol/kg without N55", "result": 250, "unit": "mmol/l x min glucose"}, {"measurement": "glucose AUC0–120", "setting": "fasted mice; GLP-1′ 5.4 nmol/kg without N55, without Ex-9", "result": 1270, "unit": "mmol/l x min glucose"}]}, {"substance": "[E22, E30] GLP-1 (7–36) amide", "values": [{"measurement": "activation of receptor by point mutant of GLP-1", "setting": "GLP-1R [1]; point mutant without Aib8", "result": "retained ability to activate the receptor"}, {"measurement": "response of point mutant of GLP-1 to N55 in vitro", "setting": "GLP-1R [1]; point mutant without Aib8", "result": "not responsive to the enhancement of N55 in vitro"}]}, {"substance": "exendin-4 [Ex-4]", "values": [{"measurement": "stimulation of GLP-1R in vitro by Ex-4", "setting": "GLP-1R [2]", "result": "stimulated GLP-1R in vitro"}, {"measurement": "glucose AUC0–120", "setting": "fasted mice; Ex-4 5.4 nmol/kg i.p. (decreased from 1500), mean, n = 5", "result": 780, "unit": "mmol/l x min glucose"}, {"measurement": "decrease in glucose level, dose dependence", "setting": "fasted mice; Ex-4 i.p., n = 5", "result": "depended on the dose of Ex-4"}, {"measurement": "glucose AUCs, dose dependence", "setting": "fasted mice; Ex-4 i.p., n = 5", "result": "decreased as dose of Ex-4 increased"}, {"measurement": "glucose tolerance", "setting": "fasted mice; Ex-4 i.p., n = 5", "result": "greatly improved the glucose tolerance"}]}]}
